Patent USRE42376E1, “Substituted 3-cyanoquinolines” (Wyeth Holdings Corporation, priority 1998, dated 2011)
≈ marks a conversion by molar mass, not a printed value. Counter-ions that a name gives are not always drawn. Each block holds one molecule with its values, some of them ahead of it.

Key:
[1] = molecular target: Epithelial Cell Kinase (ECK) (Homo sapiens, UniProt P29317); test: Inhibition of Epithelial Cell Kinase (ECK); type: biochemical
Experimental: In this standard pharmacological test procedure, a biotinylated peptide substrate is first immobilized on neutravidin-coated microtiter plates. The test drug, the Epithelial Cell Kinase (ECK), Mg^++, sodium vanadate (a protein tyrosine phosphatase inhibitor), and an appropriate buffer to maintain pH (7.2) are then added to the immobilized substrate-containing microtiter wells. ATP is then added to initiate phosphorylation. After incubation, the assay plates are washed with a suitable buffer leaving behind phosphorylated peptide which is exposed to horse radish peroxidase (HRP)-conjugated anti-phosphotyrosine monoclonal antibody. The antibody-treated plates are washed again and the HRP activity in individual wells is quantified as a reflection of degree of substrate phosphorylation. […] Multiple entries for a given compound indication it was tested multiple times.

[2] = molecular target: T1, recombinant human MEK 1 (MAPKK) and human ERK2 (MAPK) (Homo sapiens, UniProt P28482+Q02750); test: Mitogen Activated Protein Kinase (MAPK) coupled assay (Mek-Erk); type: biochemical; settings: separate entries = repeat tests
T1 construct: The recombinant enzymes used were prepared as GST fusion proteins of human ERK 2 and human MEK 1
T1 sequence (Q02750 whole entry, the tested form may be a part): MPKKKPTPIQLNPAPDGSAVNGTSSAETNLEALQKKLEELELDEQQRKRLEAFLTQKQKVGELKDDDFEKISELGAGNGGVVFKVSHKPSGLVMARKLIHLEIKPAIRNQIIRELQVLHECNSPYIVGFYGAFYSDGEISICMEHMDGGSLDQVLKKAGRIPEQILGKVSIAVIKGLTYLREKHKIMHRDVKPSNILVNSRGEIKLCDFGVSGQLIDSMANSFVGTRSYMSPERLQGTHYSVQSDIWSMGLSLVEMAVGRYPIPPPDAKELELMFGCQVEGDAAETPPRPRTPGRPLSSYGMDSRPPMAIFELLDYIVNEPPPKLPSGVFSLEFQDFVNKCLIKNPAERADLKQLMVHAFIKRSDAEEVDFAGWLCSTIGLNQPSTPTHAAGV
T1 sequence (P28482 2-360): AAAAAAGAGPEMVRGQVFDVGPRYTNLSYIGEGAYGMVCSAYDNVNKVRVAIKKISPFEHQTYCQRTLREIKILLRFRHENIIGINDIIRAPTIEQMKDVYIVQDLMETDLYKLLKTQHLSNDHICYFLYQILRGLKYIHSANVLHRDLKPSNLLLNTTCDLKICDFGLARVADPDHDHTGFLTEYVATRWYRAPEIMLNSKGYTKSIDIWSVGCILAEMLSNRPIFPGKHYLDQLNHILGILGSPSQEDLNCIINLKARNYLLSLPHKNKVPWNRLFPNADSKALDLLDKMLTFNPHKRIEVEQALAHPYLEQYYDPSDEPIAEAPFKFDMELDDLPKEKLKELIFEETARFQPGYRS
Experimental: To evaluate inhibitors of the MAP (mitogen activated protein) kinase a two component coupled standard pharmacological test procedure, which measures phosphorylation of a serine/threonine residue in an appropriate sequence in the substrate in the presence and absence of a putative inhibitor, was used. Recombinant human MEK 1 (MAPKK) was first used to activate recombinant human ERK2 (MAPK) and the activated MAPK (ERK) was incubated with substrate (MBP peptide or MYC peptide) in the presence of ATP, Mg^+2 and radiolabeled ^33P ATP. The phosphorylated peptide was captured on a P 81 phosphocellulose filter (paper filter or embedded in microtiter plate) washed and counted by scintillation methods. […]
The reaction was run as follows in 50 mM Tris kinase buffer, pH 7.4 in a reaction volume of 50 ul. […] The filters or MTP were briefly air dried before addition of scintillant and samples were counted in the appropriate scintillation counter set up for reading ^33P isotope. […]
The raw data was captured as cpm. […] Mean cpm data was tabulated by group and % inhibition by a test compound was calculated as (corrected cpm control-corrected. cpm sample/control) X 100=% inhibition. […] The results obtained for representative compounds of this invention are listed in TABLE 2 where there may be separate entries for the same compound; this is an indication that the compound was evaluated more than one time.

MDAMB435 = test: Inhibition of cancer cell growth as measured by cell number, MDAMB435; type: cell-based, Human; settings: 48 hours exposure, Sulforhodamine B
Experimental: (§1) Human tumor cell lines were plated in 96-well plates (250 μl/well, 1-6×10^4 cells/ml) in RPMI 1640 medium, containing 5% FBS (Fetal Bovine Serum). […] After 48 hours exposure to test compounds, cells were fixed with trichloroacetic acid, and stained with Sulforhodamine B. After washing with trichloroacetic acid, bound dye was solubilized in 10 mM Tris base and optical density was determined using plate reader. Under conditions of the assay the optical density is proportional to the number of cells in the well. […] The test procedure is described in details by Philip Skehan et. al, J.Natl. Canc. Inst., 82, 1107-1112 (1990). […] Information about some of the cell lines used in these test procedures is available from the American Type Tissue Collection: Cell Lines and Hybridomas, 1994 Reference Guide, 8th Edition.

SW620 = test: Inhibition of cancer cell growth as measured by cell number, SW620; type: cell-based, Human; settings: 48 hours exposure, Sulforhodamine B
Experimental: as §1

A431 = test: Inhibition of cancer cell growth as measured by cell number, A431; type: cell-based, Human; settings: 48 hours exposure, Sulforhodamine B
Experimental: as §1

SKBR3 = test: Inhibition of cancer cell growth as measured by cell number, SKBR3; type: cell-based, Human; settings: 48 hours exposure, Sulforhodamine B
Experimental: as §1

3T3 = test: Inhibition of cell growth as measured by cell number, 3T3; type: cell-based; settings: 48 hours exposure, Sulforhodamine B
Experimental: as §1

Her2/3T3 = test: Inhibition of cell growth as measured by cell number, Her2/3T3; type: cell-based; settings: 48 hours exposure, Sulforhodamine B
Experimental: as §1

[3] = system: Human Epidermoid Tumors (A431); test: In vivo inhibition of the growth of human epidermoid tumors (A431) in mice; design: species or system BALB/c nu/nu female mice; settings: for S/T = # of Survivors/# of Treated: Day +28 post tumor staging
Experimental: Human epidernoid carcinoma cells A-431 (American Type Culture Collection, Rockville, Md. #CRL-155) were grown in vitro as described above. A unit of 5×10^6 cells were injected SC into mice. […] Control animals received no drug. […] The % T/C (Tumor/Control) is determined by dividing the relative tumor growth of the treated group by the relative tumor growth of the placebo group and multiplying by 100.

Sequence of Epithelial Cell Kinase (ECK) (P29317 24-976, species assumed): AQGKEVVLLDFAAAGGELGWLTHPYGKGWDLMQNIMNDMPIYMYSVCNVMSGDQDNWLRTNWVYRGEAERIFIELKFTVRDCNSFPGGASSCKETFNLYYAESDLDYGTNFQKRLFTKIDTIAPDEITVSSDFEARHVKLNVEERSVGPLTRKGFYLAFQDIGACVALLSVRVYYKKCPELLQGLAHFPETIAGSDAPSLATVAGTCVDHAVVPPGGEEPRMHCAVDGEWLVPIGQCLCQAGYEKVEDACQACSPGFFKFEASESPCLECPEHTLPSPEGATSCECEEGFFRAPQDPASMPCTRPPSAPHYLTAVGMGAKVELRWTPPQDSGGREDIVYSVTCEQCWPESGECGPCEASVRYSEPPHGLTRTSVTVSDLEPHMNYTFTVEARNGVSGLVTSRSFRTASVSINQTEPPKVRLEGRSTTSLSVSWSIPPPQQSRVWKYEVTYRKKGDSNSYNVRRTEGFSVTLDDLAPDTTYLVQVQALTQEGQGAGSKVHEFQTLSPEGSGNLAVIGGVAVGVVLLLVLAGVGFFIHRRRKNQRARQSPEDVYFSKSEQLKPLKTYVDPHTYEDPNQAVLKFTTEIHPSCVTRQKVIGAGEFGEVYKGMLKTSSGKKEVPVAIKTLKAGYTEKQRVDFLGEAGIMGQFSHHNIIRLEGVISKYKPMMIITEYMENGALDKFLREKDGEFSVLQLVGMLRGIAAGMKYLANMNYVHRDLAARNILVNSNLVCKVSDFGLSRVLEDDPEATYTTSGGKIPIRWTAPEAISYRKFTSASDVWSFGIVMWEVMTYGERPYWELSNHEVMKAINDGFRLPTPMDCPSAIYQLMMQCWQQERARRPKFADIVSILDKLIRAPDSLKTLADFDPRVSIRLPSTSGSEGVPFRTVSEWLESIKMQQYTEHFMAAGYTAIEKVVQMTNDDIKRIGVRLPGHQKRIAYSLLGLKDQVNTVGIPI

IC50 [1]: > 37.3 µM
melting point: 98 to 101 °C
Compound: COCCN(CC#CC(=O)Nc1ccc2ncc(C#N)c(Nc3cccc(Br)c3)c2c1)CCOC [Example 75, N-[4-[(3-Bromophenyl)amino]-3-cyano-6-quinolinyl]-4-(bis-(2-methoxyethyl)amino)-2-butynamide]

IC50 [1]: > 38.6 µM
IC50 [2]: 80 µM
Compound: COC[C@@H]1CCCN1CC#CC(=O)Nc1ccc2ncc(C#N)c(Nc3cccc(Br)c3)c2c1 [Example 79, 4-((2S)-2-Methoxymethylpyrrolidin-1-yl)but-2-ynoic Acid[4-(3-bromophenylamino)-3-cyanoquinolin-6-yl]amide]

IC50 [1]: > 40.6 µM
melting point: 95 °C (dec.)
Compound: COCCN(C)CC#CC(=O)Nc1ccc2ncc(C#N)c(Nc3cccc(Br)c3)c2c1 [Example 76, N-[4-[(3-Bromophenyl)amino]-3-cyano-6-quinolinyl]-4-(N-methoxyethyl-N-methylamino)-2-butynamide]

IC50 cell growth MDAMB435 (MDAMB435): 1.74 µg/mL
IC50 cell growth SW620 (SW620): 1.24 µg/mL
IC50 cell growth A431 (A431): 0.234 µg/mL
IC50 cell growth SKBR3 (SKBR3): 0.148 µg/mL
Compound: COC[C@@H]1CCCN1CC=CC(=O)Nc1cc2c(Nc3ccc(F)c(Cl)c3)c(C#N)cnc2cc1OC.Cl.Cl [Example 90, (S)-4-(2-Methoxymethyl-pyrrolidin-1-yl)-but-2-enoic Acid[4-(3-chloro-4-fluoro-phenylamino)-3-cyano-7-methoxy-quinolin-6-yl]-amide dihydrochloride]
IC50 cell growth 3T3 (3T3): 2.1 µg/mL
IC50 cell growth Her2/3T3 (Her2/3T3): 0.329 µg/mL

IC50 [1]: > 21.6 µM
Compound: CCOc1c(Nc2ccc3ncc(C#N)c(Nc4cccc(Br)c4)c3c2)c(=O)c1=O [Example 85, 4-(3-Bromo-phenylamino)-6-(2-ethoxy-3,4-dioxo-cyclobut-1-enylamino)-quinoline-3-carbonitrile]

melting point: 133 to 135 °C
Compound: C=CCN(C)CC#CC(=O)Nc1ccc2ncc(C#N)c(Nc3cccc(Br)c3)c2c1 [Example 77, N-[4-[(3-Bromophenyl)amino]-3-cyano-6-quinolinyl]-4-(N-allyl-N-methylamino)-2-butynamide]

Compound: COCCN(C)CC=CC(=O)Nc1cc2c(Nc3ccc(F)c(Cl)c3)c(C#N)cnc2cc1OC [Example 89, 4-[(2-Methoxy-ethyl)-methyl-amino]-but-2-enoic Acid[4-(3-chloro-4-fluoro-phenylamino)-3-cyano-7-methoxy-quinolin-6-yl]-amide Dihydrochloride]
S/T = # of Survivors/# of Treated ([3]; Table 5, 10 mg/kg/dose PO days 1 through 10): 4/5
S/T = # of Survivors/# of Treated ([3]; Table 5, 40 mg/kg/dose PO days 1 through 10): 5/5
inhibition of tumor growth in vivo (in words) ([3]; given orally at 40 mg/Kg and 10 mg/Kg): effective inhibitor of tumor growth in vivo

Compound: COc1cc2ncc(C#N)c(Nc3ccc(F)c(Cl)c3)c2cc1NC(=O)C=CCN1CCC2(CC1)OCCO2 [Example 92, 4-(1,4-Dioxa-8-aza-spiro[4.5]dec-8-yl)-but-2-enoic Acid[4-(3-chloro-4-fluoro-phenylamino)-3-cyano-7-methoxy-quinolin-6-yl]-amide]
IC50 cell growth MDAMB435 (MDAMB435): 3.32 µg/mL (≈ 6.01 µM)
IC50 cell growth SW620 (SW620): 2.51 µg/mL (≈ 4.55 µM)
IC50 cell growth A431 (A431): 0.283 µg/mL (≈ 0.513 µM)
IC50 cell growth SKBR3 (SKBR3): 0.188 µg/mL (≈ 0.341 µM)
IC50 cell growth 3T3 (3T3): 2.79 µg/mL (≈ 5.05 µM)
IC50 cell growth Her2/3T3 (Her2/3T3): 0.35 µg/mL (≈ 0.634 µM)
S/T = # of Survivors/# of Treated ([3]; Table 4, 10 mg/kg/dose PO days 1 through 10): 5/5
S/T = # of Survivors/# of Treated ([3]; Table 4, 40 mg/kg/dose PO days 1 through 10): 5/5
inhibition of tumor growth in vivo (in words) ([3]; given orally at 40 mg/Kg): effective inhibitor of tumor growth in vivo

melting point: 197 to 199 °C
Compound: COc1cc2ncc(C#N)c(Nc3ccc(F)c(Cl)c3)c2cc1N1CC1
